Here are results for nine molecules from patent US20260116920A1, “HUMAN TRANSFERRIN RECEPTOR BINDING PEPTIDE” (PEPTIDREAM INC., priority 2021, published 2026).

The assay deals with T1, human transferrin receptor (hTfR) (Homo sapiens, UniProt P02786).
T1 construct: made in house
The assay can be described thus: Evaluation of molecular interaction between transferrin receptor (hTfR) and peptide using surface plasmon resonance (SPR). In kind it is binding. The note with it: surface plasmon resonance, binding to hTfR; KD class symbol; read-out: SPR (KD value). In outline:
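Recombinant hTfR dimer (0.5 μM) immobilized on Ni-loaded NTA chip via EDC/NHS, ethanolamine-capped. Peptides at 5–100 nM in HEPES pH 8.0 buffer with 150 mM NaCl, 0.05% Tween 20, 0.1% BSA, 1.0% DMSO, flowed by single-cycle kinetics; KD from least-squares fit of sensorgrams.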
(SPR reads the build-up and loss of mass on a sensor chip optically.)

Positions of bridges follow the written chain, without caps; N, C: chain ends. Non-standard residues stand in square brackets, D forms with d. Residues, ends and D or L forms follow the SMILES beside them. *: point of attachment. Phe(3-COOH) = N[C@@H](Cc1cccc(C(=O)O)c1)C(=O)O; NH(CH2CH2O)8Me = COCCOCCOCCOCCOCCOCCOCCOCCN*; NMePhe(3-Cl) = CN[C@@H](Cc1cccc(Cl)c1)C(=O)O; 3Pal(6-NH2) = Nc1ccc(C[C@H](N)C(=O)O)cn1; NMeY = CN[C@@H](Cc1ccc(O)cc1)C(=O)O; 3Pal = N[C@@H](Cc1cccnc1)C(=O)O; 4Pal = N[C@@H](Cc1ccncc1)C(=O)O; PEG4 = NCCOCCOCCOCCOCCC(=O)O; Carboxymethyl = O=C(O)C*

For orientation: Kd means the equilibrium constant for the complex coming apart.

T1 sequence (P02786 89-760 limits assumed): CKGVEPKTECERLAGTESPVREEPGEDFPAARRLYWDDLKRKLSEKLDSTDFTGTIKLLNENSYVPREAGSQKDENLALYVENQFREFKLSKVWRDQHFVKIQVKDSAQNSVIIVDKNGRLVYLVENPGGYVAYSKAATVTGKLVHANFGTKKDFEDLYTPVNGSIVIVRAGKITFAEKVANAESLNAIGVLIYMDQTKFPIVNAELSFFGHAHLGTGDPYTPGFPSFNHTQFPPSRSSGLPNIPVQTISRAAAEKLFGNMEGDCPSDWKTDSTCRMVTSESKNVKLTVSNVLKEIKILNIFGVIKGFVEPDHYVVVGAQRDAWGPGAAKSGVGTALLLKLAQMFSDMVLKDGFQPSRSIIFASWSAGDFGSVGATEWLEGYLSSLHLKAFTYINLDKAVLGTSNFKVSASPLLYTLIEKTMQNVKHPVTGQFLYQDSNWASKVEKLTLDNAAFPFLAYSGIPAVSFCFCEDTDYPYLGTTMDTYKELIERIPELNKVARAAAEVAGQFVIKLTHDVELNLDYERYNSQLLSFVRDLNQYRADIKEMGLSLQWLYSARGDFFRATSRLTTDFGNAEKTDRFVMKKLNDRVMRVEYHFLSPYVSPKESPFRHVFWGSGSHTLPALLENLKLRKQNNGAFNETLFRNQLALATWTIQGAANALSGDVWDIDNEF

Consider `CC[C@H](C)[C@@H]1NC(=O)[C@H](Cc2ccc(OCC(=O)O)cc2)NC(=O)[C@H](Cc2ccc(O)cc2)NC(=O)[C@H](CC(N)=O)NC(=O)[C@H](Cc2c[nH]c3ccccc23)NC(=O)[C@H](C(C)C)NC(=O)[C@H](Cc2cccc(Cl)c2)N(C)C(=O)[C@H](C(C)C)NC(=O)[C@H](C)NC(=O)CSC[C@@H](C(=O)NCCOCCOCCOCCOCCC(N)=O)NC(=O)[C@H](Cc2ccc(O)cc2)N(C)C(=O)[C@H](Cc2ccccc2)NC(=O)[C@H](CCC(=O)NCCOCCOCCOCCOCCOCCOCCOCCOC)NC(=O)[C@H](CCCNC(=N)N)NC(=O)[C@H]([C@@H](C)CC)NC1=O` [compound 89], for which the Kd lay in the range of 0.001 to 0.1 µM.
Under `CC[C@H](C)[C@@H]1NC(=O)[C@H](Cc2ccc(OC)cc2)NC(=O)[C@H](Cc2ccc(O)cc2)NC(=O)[C@H](CC(N)=O)NC(=O)[C@H](Cc2c[nH]c3ccccc23)NC(=O)[C@H](C(C)C)NC(=O)[C@H](Cc2cccc(Cl)c2)N(C)C(=O)[C@H](C(C)C)NC(=O)[C@H](C)NC(=O)CSC[C@@H](C(=O)NCCOCCOCCOCCOCCC(N)=O)NC(=O)[C@H](Cc2ccc(O)cc2)N(C)C(=O)[C@H](Cc2cccc(C(=O)O)c2)NC(=O)[C@H](CCC(=O)NCCOCCOCCOCCOCCOCCOCCOCCOC)NC(=O)[C@H](CCCNC(=N)N)NC(=O)[C@H]([C@@H](C)CC)NC1=O` [compound 90] ({CH2CO}-AV[NMePhe(3-Cl)]VWNYY(Me)IIRE(NH(CH2CH2O)8Me)[Phe(3-COOH)][NMeY]C[PEG4]-NH2; thioether N-15) stands 0.001 to 0.1 µM; under `CC[C@H](C)[C@@H]1NC(=O)[C@H](Cc2ccc(OCC(=O)O)cc2)NC(=O)[C@H](Cc2ccc(N)nc2)NC(=O)[C@H](CC(N)=O)NC(=O)[C@H](Cc2c[nH]c3ccccc23)NC(=O)[C@H](C(C)C)NC(=O)[C@H](Cc2cccc(Cl)c2)N(C)C(=O)[C@H](C(C)C)NC(=O)[C@H](C)NC(=O)CSC[C@@H](C(=O)NCCOCCOCCOCCOCCC(N)=O)NC(=O)[C@H](Cc2ccc(O)cc2)N(C)C(=O)[C@H](Cc2cccc(C(=O)O)c2)NC(=O)[C@H](CCCNC(=N)N)NC(=O)[C@H](CCCNC(=N)N)NC(=O)[C@H]([C@@H](C)CC)NC1=O` [compound 91] ({CH2CO}-AV[NMePhe(3-Cl)]VWN[3Pal(6-NH2)]Y(Carboxymethyl)IIRR[Phe(3-COOH)][NMeY]C[PEG4]-NH2; thioether N-15), 0.001 to 0.1 µM; under `CC[C@H](C)[C@@H]1NC(=O)[C@H](Cc2ccc(OCC(=O)O)cc2)NC(=O)[C@H](Cc2ccc(N)nc2)NC(=O)[C@H](CC(N)=O)NC(=O)[C@H](Cc2c[nH]c3ccccc23)NC(=O)[C@H](C(C)C)NC(=O)[C@H](Cc2cccc(Cl)c2)N(C)C(=O)[C@H](C(C)C)NC(=O)[C@H](C)NC(=O)CSC[C@@H](C(=O)NCCOCCOCCOCCOCCC(N)=O)NC(=O)[C@H](Cc2ccc(O)cc2)N(C)C(=O)[C@H](Cc2ccncc2)NC(=O)[C@H](CCCNC(=N)N)NC(=O)[C@H](CCCNC(=N)N)NC(=O)[C@H]([C@@H](C)CC)NC1=O` [compound 92], 0.001 to 0.1 µM.
The same measure for `CC[C@H](C)[C@@H]1NC(=O)[C@H](Cc2cccnc2)NC(=O)[C@H](Cc2ccc(O)cc2)NC(=O)[C@H](CC(N)=O)NC(=O)[C@H](Cc2c[nH]c3ccccc23)NC(=O)[C@H](C(C)C)NC(=O)[C@H](Cc2cccc(Cl)c2)N(C)C(=O)[C@H](C(C)C)NC(=O)[C@H](C)NC(=O)CSC[C@@H](C(=O)NCCOCCOCCOCCOCCC(N)=O)NC(=O)[C@H](Cc2ccc(O)cc2)N(C)C(=O)[C@H](Cc2cccc(C(=O)O)c2)NC(=O)[C@H](CCC(=O)NCCOCCOCCOCCOCCOCCOCCOCCOC)NC(=O)[C@H](CCCNC(=N)N)NC(=O)[C@H]([C@@H](C)CC)NC1=O` [compound 93] ({CH2CO}-AV[NMePhe(3-Cl)]VWNY[3Pal]IIRE(NH(CH2CH2O)8Me)[Phe(3-COOH)][NMeY]C[PEG4]-NH2; thioether N-15): 0.001 to 0.1 µM; for `CC[C@H](C)[C@@H]1NC(=O)[C@H](Cc2cccnc2)NC(=O)[C@H](Cc2ccc(O)cc2)NC(=O)[C@H](CC(N)=O)NC(=O)[C@H](Cc2c[nH]c3ccccc23)NC(=O)[C@H](C(C)C)NC(=O)[C@H](Cc2cccc(Cl)c2)N(C)C(=O)[C@H](C(C)C)NC(=O)[C@H](C)NC(=O)CSC[C@@H](C(=O)NCCOCCOCCOCCOCCC(N)=O)NC(=O)[C@H](Cc2ccc(O)cc2)N(C)C(=O)[C@H](Cc2ccncc2)NC(=O)[C@H](CCC(=O)NCCOCCOCCOCCOCCOCCOCCOCCOC)NC(=O)[C@H](CCCNC(=N)N)NC(=O)[C@H]([C@@H](C)CC)NC1=O` [compound 94] ({CH2CO}-AV[NMePhe(3-Cl)]VWNY[3Pal]IIRE(NH(CH2CH2O)8Me)[4Pal][NMeY]C[PEG4]-NH2; thioether N-15): 0.001 to 0.1 µM.
Regarding `CC[C@H](C)[C@@H]1NC(=O)[C@H](Cc2ccc(OCC(=O)O)cc2)NC(=O)[C@H](Cc2ccc(O)cc2)NC(=O)[C@H](CC(N)=O)NC(=O)[C@H](Cc2c[nH]c3ccccc23)NC(=O)[C@H](C(C)C)NC(=O)[C@H](Cc2cccc(Cl)c2)N(C)C(=O)[C@H](C(C)C)NC(=O)[C@H](C)NC(=O)CSC[C@@H](C(=O)NCCOCCOCCOCCOCCC(N)=O)NC(=O)[C@H](Cc2ccc(O)cc2)N(C)C(=O)[C@H](Cc2cccc(C(=O)O)c2)NC(=O)[C@H](CCC(=O)NCCOCCOCCOCCOCCOCCOCCOCCOC)NC(=O)[C@H](CCCNC(=N)N)NC(=O)[C@H]([C@@H](C)CC)NC1=O` [compound 95] ({CH2CO}-AV[NMePhe(3-Cl)]VWNYY(Carboxymethyl)IIRE(NH(CH2CH2O)8Me)[Phe(3-COOH)][NMeY]C[PEG4]-NH2; thioether N-15), the Kd was 0.001 to 0.1 µM.
Turning to `CC[C@H](C)[C@@H]1NC(=O)[C@H](Cc2ccc(OCC(=O)O)cc2)NC(=O)[C@H](Cc2ccc(O)cc2)NC(=O)[C@H](CC(N)=O)NC(=O)[C@H](Cc2c[nH]c3ccccc23)NC(=O)[C@H](C(C)C)NC(=O)[C@H](Cc2cccc(Cl)c2)N(C)C(=O)[C@H](C(C)C)NC(=O)[C@H](C)NC(=O)CSC[C@@H](C(=O)NCCOCCOCCOCCOCCC(N)=O)NC(=O)[C@H](Cc2ccc(O)cc2)N(C)C(=O)[C@H](Cc2ccncc2)NC(=O)[C@H](CCC(=O)NCCOCCOCCOCCOCCOCCOCCOCCOC)NC(=O)[C@H](CCCNC(=N)N)NC(=O)[C@H]([C@@H](C)CC)NC1=O` [compound 96] ({CH2CO}-AV[NMePhe(3-Cl)]VWNYY(Carboxymethyl)IIRE(NH(CH2CH2O)8Me)[4Pal][NMeY]C[PEG4]-NH2; thioether N-15), the equilibrium dissociation constant (Kd) is 0.001 to 0.1 µM.
Under `CC[C@H](C)[C@@H]1NC(=O)[C@H](Cc2cccnc2)NC(=O)[C@H](Cc2ccc(N)nc2)NC(=O)[C@H](CC(N)=O)NC(=O)[C@H](Cc2c[nH]c3ccccc23)NC(=O)[C@H](C(C)C)NC(=O)[C@H](Cc2cccc(Cl)c2)N(C)C(=O)[C@H](C(C)C)NC(=O)[C@H](C)NC(=O)CSC[C@@H](C(=O)NCCOCCOCCOCCOCCC(N)=O)NC(=O)[C@H](Cc2ccc(O)cc2)N(C)C(=O)[C@H](Cc2cccc(C(=O)O)c2)NC(=O)[C@H](CCC(=O)NCCOCCOCCOCCOCCOCCOCCOCCOC)NC(=O)[C@H](CCCNC(=N)N)NC(=O)[C@H]([C@@H](C)CC)NC1=O` [compound 97] ({CH2CO}-AV[NMePhe(3-Cl)]VWN[3Pal(6-NH2)][3Pal]IIRE(NH(CH2CH2O)8Me)[Phe(3-COOH)][NMeY]C[PEG4]-NH2; thioether N-15) stands 0.001 to 0.1 µM.
